Data set [1] has as its target T1, TRAF2 and NCK-interacting protein kinase (Homo sapiens, UniProt Q9UKE5).
Data set [2] concerns LX-2. In words: cells. Particulars: Homo sapiens.
Data set [3] has as its system LX-2. In words: cells. As to conditions: Homo sapiens. The source holds these as a separate data set.
Data set [4] is described as follows: in vitro. Particulars: human, lx-2.
Data set [5] in a line: Metabolic stability in human liver microsomes assessed as intrinsic clearance preincubated for 60 mins followed by NADPH addition and measured after 5 to 60 mins by LC-MS/MS analysis. The data set is classed as ADME, Microsome. As to conditions: time 65-120 min, read-out: CLH. For orientation: Microsomes from liver hold many membrane-bound enzymes, among them those of drug oxidation.

Data set [6] in a line: Metabolic stability in mouse liver microsomes assessed as intrinsic clearance preincubated for 60 mins followed by NADPH addition and measured after 5 to 60 mins by LC-MS/MS analysis. It is filed as ADME, Microsome. As to conditions: time 65-120 min, read-out: CLH.
Data set [7] is described as follows: physchem. As to conditions: buffer, pH 7.4.
Data set [8] can be described thus: Apparent permeability in human Caco-2 cells. It is filed as ADME, cell-based. (In general: Passage across Caco-2 layers is used to estimate intestinal permeability.)
For data set [9], the target named is T2, Muscarinic acetylcholine receptor M1 (Homo sapiens, UniProt P11229).
T2 sequence (P11229 whole entry): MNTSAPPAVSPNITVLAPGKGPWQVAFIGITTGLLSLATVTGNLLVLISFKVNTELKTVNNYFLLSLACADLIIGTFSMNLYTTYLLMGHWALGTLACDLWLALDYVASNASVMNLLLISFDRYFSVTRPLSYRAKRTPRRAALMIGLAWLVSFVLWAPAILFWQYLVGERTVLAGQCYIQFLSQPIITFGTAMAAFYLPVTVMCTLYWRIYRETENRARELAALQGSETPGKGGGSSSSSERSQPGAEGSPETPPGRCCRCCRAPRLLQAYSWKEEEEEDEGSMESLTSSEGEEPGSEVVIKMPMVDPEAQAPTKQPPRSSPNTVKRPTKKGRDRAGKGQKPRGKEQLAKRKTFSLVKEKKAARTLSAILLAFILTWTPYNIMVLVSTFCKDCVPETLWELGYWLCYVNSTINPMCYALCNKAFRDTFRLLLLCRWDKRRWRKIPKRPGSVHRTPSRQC
In words: Inhibition of human CHRM1 by Eurofins DiscoverX method.

Data set [10] relates to Mus musculus. Kind of data set: Anti-hepatic fibrosis activity in CCL4-induced male C57BL6/J mouse hepatic fibrosis model assessed as change in body weight at 3 mg/kg, po meausred after 2 weeks (reference value: -1.8%). The data set is classed as functional.
For data set [11], the system named is Mus musculus. Kind of data set: Anti-hepatic fibrosis activity in CCL4-induced male C57BL6/J mouse hepatic fibrosis model assessed as change in body weight at 10 mg/kg, po meausred after 2 weeks (reference value: -1.8%). The data set is classed as functional.
Data set [12] is described as follows: Inhibition of fibronectin-1 protein expression in human Primary bronchial epithelial cell. The data set is classed as functional, cell-based.
Data set [13] concerns the target T1, TRAF2 and NCK-interacting protein kinase. This is another data set of the same source.

In brackets after ≈: the same amount, converted by molar mass. A value given as a limit tells only on which side of the number the result lay.

T1 sequence (Q9UKE5 whole entry): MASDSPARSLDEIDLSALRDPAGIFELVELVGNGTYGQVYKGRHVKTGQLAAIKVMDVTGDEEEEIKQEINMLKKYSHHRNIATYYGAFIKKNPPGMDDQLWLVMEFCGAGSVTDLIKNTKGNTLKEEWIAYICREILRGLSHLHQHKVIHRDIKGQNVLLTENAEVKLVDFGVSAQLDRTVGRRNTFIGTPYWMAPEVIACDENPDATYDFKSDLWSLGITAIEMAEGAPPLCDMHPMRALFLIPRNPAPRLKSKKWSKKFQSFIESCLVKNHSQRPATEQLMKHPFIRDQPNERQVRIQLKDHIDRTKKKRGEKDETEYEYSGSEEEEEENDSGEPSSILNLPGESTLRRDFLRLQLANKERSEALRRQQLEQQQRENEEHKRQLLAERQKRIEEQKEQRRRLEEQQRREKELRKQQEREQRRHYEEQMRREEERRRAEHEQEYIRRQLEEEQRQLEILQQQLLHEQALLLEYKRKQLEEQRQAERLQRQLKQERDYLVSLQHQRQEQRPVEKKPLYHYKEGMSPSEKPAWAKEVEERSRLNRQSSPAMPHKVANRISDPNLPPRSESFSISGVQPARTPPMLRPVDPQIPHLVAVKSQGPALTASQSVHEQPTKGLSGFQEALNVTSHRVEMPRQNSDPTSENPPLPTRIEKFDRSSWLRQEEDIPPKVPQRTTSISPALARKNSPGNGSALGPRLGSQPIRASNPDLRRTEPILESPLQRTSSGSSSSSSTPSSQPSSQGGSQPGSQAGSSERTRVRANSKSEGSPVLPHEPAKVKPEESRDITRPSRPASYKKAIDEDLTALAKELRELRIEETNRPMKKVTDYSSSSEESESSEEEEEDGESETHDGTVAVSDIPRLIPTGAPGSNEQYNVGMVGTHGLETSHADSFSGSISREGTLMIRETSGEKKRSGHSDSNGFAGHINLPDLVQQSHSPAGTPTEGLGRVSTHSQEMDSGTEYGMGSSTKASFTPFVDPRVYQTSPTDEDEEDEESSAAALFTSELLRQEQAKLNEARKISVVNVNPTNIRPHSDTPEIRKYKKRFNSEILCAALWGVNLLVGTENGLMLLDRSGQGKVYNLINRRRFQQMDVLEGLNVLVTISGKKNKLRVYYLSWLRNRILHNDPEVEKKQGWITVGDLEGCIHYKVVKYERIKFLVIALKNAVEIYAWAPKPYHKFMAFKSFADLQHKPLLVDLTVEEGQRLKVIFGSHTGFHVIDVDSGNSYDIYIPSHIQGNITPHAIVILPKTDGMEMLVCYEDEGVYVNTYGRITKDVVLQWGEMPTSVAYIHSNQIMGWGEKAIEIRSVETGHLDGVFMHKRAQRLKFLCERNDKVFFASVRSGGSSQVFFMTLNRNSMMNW

`CC(C)n1cnc(-c2ccc(F)cc2)c1-c1nc(C(=O)Nc2ccc(N(CCO)CCO)cc2)c[nH]1`: the IC50 (commonly the concentration needed to halve the response being measured) in data set [1] came out at 79.1 nM; in data set [2], 839 nM; in data set [3], 904 nM. In [4], this compound returned an IC50 at 72 h of more than 100 µM.

For `CC(C)n1cnc(-c2ccc(F)cc2)c1-c1nc(C(=O)Nc2ccc(N3CC4CCC(C3)N4C)cc2)c[nH]1`, the IC50 came out at 4 nM in [1], 42 nM in [2] and 77 nM in data set [3]. This compound also gave an IC50 at 72 h in [4] of 22.6 µM.

With `CC1CN(c2ccc(NC(=O)c3c[nH]c(-c4c(-c5ccc(F)cc5)ncn4C(C)C)n3)cc2)CC(C)N1C` (stereo not given), the IC50 in data set [1] came to 18 nM; in [2], 71 nM; in data set [3], 71 nM. This compound also had an IC50 at 72 h in [4] of 12.3 µM.

Consider `CC(C)n1cnc(-c2ccc(F)cc2)c1-c1cccc(C(=O)Nc2ccc(N3CCN(C)CC3)cc2)n1`, for which the figures for the microsomal CLint in [5] and in data set [6] were 119 µL/min/mg and 122 µL/min/mg, respectively. The compound also registered an IC50 in data set [1] of 5.9 nM. Further, the kinetic solubility (as a rule, the concentration staying in solution when a stock, usually in DMSO, is diluted into the medium) at 24 h in data set [7] came to 105 µM (≈ 52.4 µg/mL).

`CC(C)n1cnc(-c2ccc(F)cc2)c1-c1nc(C(=O)Nc2ccc(C(=O)O)cc2)c[nH]1`: the Papp (usually a coefficient for how fast a substance crosses the barrier) in [8] was 0.07 ×10⁻⁶ cm/s. Also, the results for the IC50 in data set [1], in data set [2] and in data set [3] were 149 nM, more than 10000 nM and more than 10000 nM, respectively. For the same compound, the IC50 at 72 h in [4] was more than 100 µM.

Consider `CC(C)n1cnc(-c2ccc(F)cc2)c1-c1ccc(C(=O)Nc2ccc(N3CCN(C)CC3)cc2)o1`, for which the microsomal CLint in data set [5] and in [6] was more than 150 µL/min/mg each time. In data set [1], this compound had an IC50 of 10.5 nM. The compound further returned a kinetic solubility at 24 h in data set [7] of 40 µM (≈ 19.5 µg/mL).

Turning to `CC(C)n1cnc(-c2ccc(F)cc2)c1-c1ccc(C(=O)Nc2ccc(CCO)cc2)o1`, the microsomal CLint in [5] and in data set [6] was more than 150 µL/min/mg each time. In [1], this compound returned an IC50 of 40.2 nM. The solubility (kinetic) at 24 h in data set [7] is less than 2 µM.

With `CC(C)n1cnc(-c2ccc(F)cc2)c1-c1nc(C(=O)Nc2ccc(N3CCN(CC(F)(F)F)CC3)cc2)c[nH]1`, the IC50 in data set [1] stood at 42 nM; in data set [2], 519 nM; in data set [3], 125 nM. Further, the IC50 at 72 h in data set [4] is more than 100 µM.

Regarding `CC(C)n1cnc(-c2ccc(F)cc2)c1-c1nc(C(=O)Nc2ccc(CCO)cc2)c[nH]1`, the IC50 was found to be 9.5 nM in data set [1], 306 nM in data set [2] and 264 nM in [3]. Moreover, the IC50 at 72 h in [4] was more than 100 µM.

For the compound `CC(C)n1cnc(-c2ccc(F)cc2)c1-c1nc(C(=O)Nc2ccc(N3CCN(C)C(=O)C3)cc2)c[nH]1`, the IC50 in data set [1] was determined as 47 nM; in data set [2] it was 898 nM; in data set [3], 713 nM. In [4], this compound registered a half-maximal inhibitory concentration (IC50) at 72 h of more than 100 µM.

As for `CC(C)n1cnc(-c2ccc(F)cc2)c1-c1nc(C(=O)Nc2ccc(N3CCN(CCO)CC3)cc2)c[nH]1`, the IC50 amounted to 21.1 nM in data set [1], 123 nM in data set [2] and 162 nM in data set [3]. Besides, in data set [4], the IC50 at 72 h was more than 100 µM.

Consider `CC(C)n1cnc(-c2ccc(F)cc2)c1-c1nc(C(=O)Nc2ccc(CCCCC(=O)O)cc2)c[nH]1`, for which the Papp in data set [8] turned out to be 0.07 ×10⁻⁶ cm/s. Besides, the IC50 is 51 nM in data set [1], more than 10000 nM in data set [2] and more than 10000 nM in [3]. This compound also registered an IC50 at 72 h in data set [4] of more than 100 µM.

`CC(C)n1cnc(-c2ccc(F)cc2)c1-c1nc(C(=O)Nc2ccc(N3CCN(C)CC3)cc2)c[nH]1`: the IC50 came out at 8.4 µM in [9] and 250 nM in data set [12]. In addition, the Activity was -0.671% in data set [10] and 6.065% in data set [11].

In the case of `CC(C)n1cnc(-c2ccc(F)c(F)c2)c1-c1nc(C(=O)Nc2ccc(N3CCN(C)CC3)cc2)c[nH]1`, the IC50 in data set [1] worked out at 51 nM.

Turning to `CC(=O)N1CCN(c2ccc(NC(=O)c3c[nH]c(-c4c(-c5ccc(F)cc5)ncn4C(C)C)n3)cc2)CC1`, the IC50 in data set [1] stood at 6 nM; in data set [2], 144 nM; in data set [3], 572 nM. This compound registered an IC50 at 72 h in data set [4] of more than 100 µM.

In the case of `CC(C)n1cnc(-c2ccc(F)cc2)c1-c1cccc(C(=O)Nc2ccc(CCO)cc2)n1`, the microsomal CLint in data set [5] came to 161 µL/min/mg; in data set [6], 124 µL/min/mg. The compound also gave an IC50 in data set [1] of 5.7 nM. In addition, the kinetic solubility at 24 h in data set [7] is less than 2 µM.

For `CC(C)n1cnc(-c2ccc(F)cc2)c1-c1nc(C(=O)Nc2ccc(N3CCN(S(N)(=O)=O)CC3)cc2)c[nH]1`, the IC50 in [1] worked out at 10.6 nM. In addition, the kinetic solubility at 24 h in [7] was less than 2 µM.

As for `CC(C)n1cnc(-c2ccc(F)cc2)c1-c1nc(C(=O)Nc2ccc(N3CCN(C(N)=O)CC3)cc2)c[nH]1`, half-maximal inhibition in data set [1] (IC50) required 199 nM.

As for `CC(C)n1cnc(-c2ccc(F)cc2)c1-c1nc(C(=O)Nc2ccc(CCC(=O)O)cc2)c[nH]1`, the Papp in [8] was determined as 0.07 ×10⁻⁶ cm/s. Also, the figures for the IC50 in data set [1], in [2] and in data set [3] were 46.3 nM, more than 10000 nM and more than 10000 nM, respectively. For the same compound, the IC50 at 72 h in data set [4] is more than 100 µM.

For the compound `CC(C)n1cnc(-c2ccc(F)cc2)c1-c1cccc(C(=O)Nc2ccc(N3CCN(CCO)CC3)cc2)n1`, the microsomal CLint in data set [5] is 141 µL/min/mg; in [6], 69.5 µL/min/mg. The same compound had an IC50 in data set [1] of 5.2 nM. The kinetic solubility at 24 h in [7] was 5.3 µM (≈ 2.8 µg/mL).

For `CC(C)n1cnc(-c2ccc(F)cc2)c1-c1nc(C(=O)Nc2ccc(N3CCNCC3)cc2)c[nH]1`, the IC50 in [1] was 11.1 nM; in data set [2], 81 nM; in data set [3], 65 nM. This compound registered an IC50 at 72 h in data set [4] of 40.5 µM.

For the compound `CC(C)n1cnc(-c2ccc(F)cc2)c1-c1nc(C(=O)Nc2ccc(N3CC[N+](C)([O-])CC3)cc2)c[nH]1`, the IC50 in data set [1] was 34.3 nM; in data set [2], 115 nM; in [3], more than 10000 nM. The compound further yielded an IC50 at 72 h in data set [4] of more than 100 µM.

As to `CC(C)n1cnc(-c2ccc(F)cc2)c1-c1cccc(C(=O)Nc2ccc(CCC(=O)O)cc2)n1`, the microsomal CLint in data set [5] and in data set [6] was less than 9.6 µL/min/mg each time. Moreover, in data set [1], half-maximal inhibition (IC50) required 5.7 nM. In data set [7], this compound returned a solubility (kinetic) at 24 h of less than 2 µM.

As to `CC(C)n1cnc(-c2ccc(Cl)cc2)c1-c1nc(C(=O)Nc2ccc(N3CCN(C)CC3)cc2)c[nH]1`, the IC50 in data set [1] was found to be 71.3 nM.

The compound `CC(C)n1cnc(-c2ccc(C(F)(F)F)cc2)c1-c1nc(C(=O)Nc2ccc(N3CCN(C)CC3)cc2)c[nH]1` gave a concentration for half-maximal inhibition (IC50) in [1] of more than 10000 nM.

In data set [13], `Cn1ccc2cc(-c3ccc4c(c3)SCCN(Cc3ccc(F)cc3)C4=O)cnc21` came in with an IC50 of 26 nM.
